Residue numbers refer to the chain shown, from its start.
Legend:
Experiment in all cases: α-Gal A activity in lysates of transfected HEK-293 cells ± migalastat (HEK assay)
Assay type in all cases: cell-based
[1] = biological target: T1, α-Gal A mutant form G360R (Homo sapiens, UniProt P06280, G360R)
T1 construct: expressed in transfected cells; host or cells: HEK-293
T1 sequence (P06280 32-429 G360R): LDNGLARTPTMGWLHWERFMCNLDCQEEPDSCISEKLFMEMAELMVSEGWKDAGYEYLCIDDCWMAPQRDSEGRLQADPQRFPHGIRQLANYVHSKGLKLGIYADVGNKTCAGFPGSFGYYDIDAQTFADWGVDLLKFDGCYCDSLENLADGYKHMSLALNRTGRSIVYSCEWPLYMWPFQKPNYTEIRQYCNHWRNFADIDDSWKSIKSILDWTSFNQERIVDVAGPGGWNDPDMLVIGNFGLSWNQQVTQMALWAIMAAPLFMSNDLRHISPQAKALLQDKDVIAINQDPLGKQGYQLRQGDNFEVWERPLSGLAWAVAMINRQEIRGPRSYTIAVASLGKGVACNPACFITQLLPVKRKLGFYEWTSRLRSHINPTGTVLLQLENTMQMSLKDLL
In short: (§1)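 Activity is reported as nmol of free 4-MU released per mg protein per hour (nmol/mg/hr).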

[2] = biological target: T2, α-Gal A mutant form A291S (Homo sapiens, UniProt P06280, A291S)
T2 construct: expressed in transfected cells; host or cells: HEK-293
T2 sequence (P06280 32-429 A291S): T1 sequence (P06280 32-429 G360R) with A260S, R329G
In short: as §1

[3] = biological target: T3, α-Gal A mutant form I303V (Homo sapiens, UniProt P06280, I303V)
T3 construct: expressed in transfected cells; host or cells: HEK-293
T3 sequence (P06280 32-429 I303V): T1 sequence (P06280 32-429 G360R) with I272V, R329G
In short: as §1

[4] = biological target: T4, α-Gal A mutant form G411S (Homo sapiens, UniProt P06280, G411S)
T4 construct: expressed in transfected cells; host or cells: HEK-293
T4 sequence (P06280 32-429 G411S): T1 sequence (P06280 32-429 G360R) with R329G, G380S
In short: as §1

[5] = biological target: T5, α-Gal A mutant form A160D (Homo sapiens, UniProt P06280, A160D)
T5 construct: expressed in transfected cells; host or cells: HEK-293
T5 sequence (P06280 32-429 A160D): T1 sequence (P06280 32-429 G360R) with A129D, R329G
In short: as §1

[6] = 10 μM migalastat minus baseline
[7] = HEK-293 lysates, 10 μM migalastat 5 days, mean ± SEM

Absolute increase (% WT) [1, 6]: 3 % WT | Relative increase ([1]; 10 μM migalastat ÷ baseline): 3.65 | 10 μM migalastat α-Gal A activity [1, 7]: 1418 ± 93 nmol/mg/h | 10 μM migalastat α-Gal A activity (% WT) [1, 7]: 4.0 ± 0.3 % WT | Absolute increase (% WT) [2, 6]: 26.8 % WT | Relative increase ([2]; 10 μM migalastat ÷ baseline): 1.55 | 10 μM migalastat α-Gal A activity [2, 7]: 20029 ± 1654 nmol/mg/h | 10 μM migalastat α-Gal A activity (% WT) [2, 7]: 74.5 ± 4^ % WT | Absolute increase (% WT) [3, 6]: 35 % WT | Relative increase ([3]; 10 μM migalastat ÷ baseline): 1.91 | 10 μM migalastat α-Gal A activity [3, 7]: 28958 ± 3153 nmol/mg/h | 10 μM migalastat α-Gal A activity (% WT) [3, 7]: 73.2 ± 8.8 % WT | Absolute increase (% WT) [4, 6]: 22 % WT | Relative increase ([4]; 10 μM migalastat ÷ baseline): 1.58 | 10 μM migalastat α-Gal A activity [4, 7]: 17543 ± 867 nmol/mg/h | 10 μM migalastat α-Gal A activity (% WT) [4, 7]: 61.1 ± 3.2 % WT | Absolute increase (% WT) [5, 6]: 25.9 % WT | Relative increase ([5]; 10 μM migalastat ÷ baseline): 1.83 | 10 μM migalastat α-Gal A activity [5, 7]: 18238 ± 1048 nmol/mg/h | 10 μM migalastat α-Gal A activity (% WT) [5, 7]: 56 ± 4.1 % WT
SMILES: OC[C@H]1NC[C@H](O)[C@@H](O)[C@H]1O [migalastat, (2R,3S,4R,5S)-2-(hydroxymethyl) piperdine-3,4,5-triol]

— patent US20230136297A1, “Methods Of Treating Fabry Disease In Patients Having A Mutation In The GLA Gene” (Amicus Therapeutics, Inc., priority 2020, published 2023)
